From patent US20230277550A1, “Methods for Treating Respiratory Diseases Characterized by Mucus Hypersecretion” (The Board of Trustees of the Leland Stanford Junior …, priority 2020, published 2023)
“Also recorded” adds a separate entry of the source.

Experiments:
[1] = system: airway epithelia; assay: In vivo mouse model, ratio of MCCs to non-ciliated cells in airway epithelia after IP dosing; parameters: species or system mice
Experimental: Airways from lung sections of similar size were labeled for all nuclei (red; DAPI) and MCC cell fate (green; FoxJ1 and blue; acetylated tubulin). Cells were scored and the percentage of MCCs determined prior to unblinding treatment condition. Otherwise wildtype mice carried FoxJ1::GFP to facilitate scoring of MCCs.
10-40 week age-matched male and female Foxj1-GFP mice were given semagacestat or vehicle by intraperitoneal (IP) administration. In the first experiment, semagacestat was administered at 0.1 mg/kg and 1 mg/kg twice daily for three days and compared to vehicle alone. Mice were sacrificed on day 7. […] In approximately similar sized, PFA-fixed airways, nuclei (red; DAPI) were scored either as MCCs (green; GFP) or non-ciliated cells (absence of GFP). Acetylated tubulin (blue) marks cilia. Samples were blinded for treatment group prior to scoring.
(§1) In the second experiment, vehicle and semagacestat were administered once daily for 5 consecutive days per week for three weeks, with a semagacestat dose of 1 mg/kg. An important observed toxicity in multiple GSI clinical trials, including large Alzheimer’s Disease trials, was gastrointestinal toxicity. As a surrogate measure of GI toxicity, we monitored body weight throughout the experiment.
(§2) Body weight was measured on Days 1, 9, 24 and 30, and mice were sacrificed on day 31.

[2] = system: Primary nasal epithelial cells from two CF donors (F508del homozygote); assay: Airway surface liquid (ASL) reabsorption; type: cell-based, human; conditions: 30 µl PBS, weight change over time; p = <0.001 vs control
Experimental: Primary nasal epithelial cells from two CF donors (F508del homozygote) were grown in filter inserts as in previous experiments to full differentiation. During differentiation they received treatment with vehicle control (blue), triple combination CFTR modulator (Elexcaftor/Tezacaftor/Ivacaftor; orange), the GSI semagacestat (LY-45139) (gray) or both treatments combined (yellow). Once they reached maturity, the apical surface was washed gently with PBS and then 30 µl of PBS were added to the surface. The filter inserts were then weighed on a precision scale at times 0, 12 and 24 hours after fluid addition. The change in weight over time was taken as a surrogate for fluid reabsorption.

[3] = In vivo mouse model, body weight as surrogate of GI toxicity, and mortality; conditions: 1 mg/kg IP, three weeks; days 9, 24 and 30
Experimental: as §1, §2

[4] = system: Primary nasal epithelial cells from two CF donors (F508del homozygotes); assay: Mucus transport by latex bead movement; type: cell-based, human; conditions: 2 µm latex beads; p < 0.01 vs control; combination p < 0.05 vs either alone
Experimental: Primary nasal epithelial cells from two CF donors (F508del homozygotes) were grown in duplicate as in previous experiments to full differentiation under treatment with vehicle control, triple combination CFTR modulator (Elexcaftor/Tezacaftor/Ivacaftor), the GSI semagacestat (LY-45139) or both treatments combined. Once mature, a 20 µl suspension of 2 µm latex beads was added to the apical surface and the insert cut for placement under a microscope fitted with a high-speed video recorder. Images were then acquired at 1000 fps to track bead movement as a reflection of mucus transport by the ciliated surface and distance travelled by individual beads estimated.

[5] = oral administration; cited from earlier work
[6] = system: Mature (ALI+30d) primary human airway epithelial cells; assay: GSI treatment of mature (ALI+30d) cultures; type: cell-based; conditions: mature cultures treated one (ALI+30 to +37d) or two weeks (ALI+30 to +44d)
Experimental: Mature (ALI+30d) primary human airway epithelial cells were treated with DAPT and semagacestat for one (ALI+30 to +37d) or two weeks (ALI+30 to +44d), then labeled with anti-acetylated α-Tubulin (green) and ECAD (red) antibodies.

[7] = system: Primary human airway epithelial cells; assay: MCC formation by timing of GSI treatment (proliferation, differentiation, continuous); type: cell-based
Experimental: Primary human airway epithelial cells were treated with DAPT and LY45139: i) during proliferation only (ALI-5 to -1d), ii) during differentiation only (ALI+0 to +21d) or iii) continuously during the entire culture duration, followed by labeling at ALI+21d with anti-acetylated α-Tubulin (green) and ECAD (red) antibodies.

[8] = cited from earlier work
[9] = system: CFTR; assay: Ussing chamber short circuit current (Isc) assay for CFTR activity; type: cell-based, human; conditions: two wild-type and two CF patient-derived cultures, treated 3x per week for 2 weeks
Experimental: Cells grown at an air liquid interface were mounted on a holding slider and inserted on an Ussing chamber for electrophysiological short circuit current (Isc) measurements. Solutions in the serosal and mucosal bath were prepared so that a chloride gradient was established between both sides. After stable baseline current recordings were obtained, agonists were added in the following order: amiloride (10 µM) to block sodium channel activity, forskolin (10 µM) to stimulate CFTR, Ivacaftor (10 µM) to potentiate CFTR activity, and CFTRinh-172 (20 µM) to block CFTR current. For each agonist signals were monitored until a plateau in current was noted before adding the next agonist. The delta-Isc in response to CFTRinh-172 was used as our main read out for CFTR-mediated chloride transport.
To assess the effect of GSIs (DAPT, Semagacestat) on CFTR function in cultured epithelia, HNECs from CF patients and non-CF controls were collected and grown at air-liquid interface to maturity (+21d) according to Vladar et al. Cultures were then treated with DAPT, Semagacestat, the CFTR modulator Lumacaftor or vehicle control added to basal media 3x per week for 2 weeks. Filter inserts were then assessed for short circuit current (Isc) against a chloride gradient in Ussing chambers to assess CFTR activity. […]

[10] = system: Primary human airway epithelial cells; assay: MCC formation with a variety of GSIs at high and low concentrations; type: cell-based

SMILES: CC(C)[C@H](O)C(=O)N[C@@H](C)C(=O)N[C@@H]1C(=O)N(C)CCc2ccccc21 [semagacestat, (2S)-2-hydroxy-3-methyl-N-[(1S)-1-methyl-2-oxo-2-[[(1S)-2,3,4,5-tetrahydro-3-methyl-2-oxo-1H-3-benzazepin-1-yl]amino]ethyl]-butamide]
- ratio of ciliated to non-ciliated cells ([1]; 0.1 mg/kg and 1 mg/kg IP twice daily for three days, sacrificed day 7, vs vehicle): increase; also recorded: a dose response trend was observed, with the high dose reaching statistical significance
- ratio of ciliated to non-ciliated cells ([1]; 1 mg/kg IP once daily, 5 days per week for three weeks, day 31, vs vehicle): significant increase; also recorded: highly significant
- ASL (fluid) reabsorption vs control [2]: significantly decreased reabsorption
- body weight vs vehicle controls [3]: no significant difference
- bead movement (mucus transport) [4]: Significant increases in movement
- half-life [5]: approximately 2.5 hours
- formation of additional multiciliated cells [6]: induces the formation of additional multiciliated cells
- MCC cell numbers ([7]; treatment during differentiation (differentiation only ALI+0 to +21d, and continuous)): increased MCC cell numbers
- effect on differentiation ([7]; treatment during proliferation only (ALI-5 to -1d)): had no effect on differentiation
- adverse events ([8]; 5 mg, 20 mg or 40 mg daily for 14 days): adverse events similar to placebo
- subjects reporting adverse events that may have been drug related ([8]; 50 mg daily dose): 2 of 7
- CFTR currents (inhibition of current after CFTRinh172) vs control conditions [9]: equal to or greater than in control conditions
- epithelial structure ([10]; high concentrations, ALI+0 to +21d): disrupted epithelial structure
- multiciliated cell formation ([10]; low concentration, ALI+0 to +21d): induced multiciliated cell formation
- Notch signaling and differentiation towards MCCs ([10]; nanomolar range, human nasal epithelial cells): effective in blocking Notch signaling, driving differentiation towards MCCs
